Test results published in ChEMBL document CHEMBL1201862, “PubChem BioAssay data set” (2004).
Values joined by “and” are separate entries in the source; they are usually repeats but may differ in a detail not shown here. Equal values may be shown once.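 1) Cells in 96-well plates. 2) Compound, 48 h, 5 concentrations. 3) Linear interpolation between surrounding doses. 4) Unreached endpoint = highest concentration. Abbreviation: GI50, concentration required for 50% inhibition of growth.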 Active and inactive are the calls of the source. No stated cut-off is given here; in the data, active = GI50 up to about 1.1 µM and inactive = higher.

Key:
Assay in all cases: NCI-60 cell line screen, 48 h
[1] = tested on: CAKI-1
[2] = tested on: M14
[3] = tested on: OVCAR-4
[4] = tested on: RXF 393
[5] = tested on: Malme-3M
[6] = tested on: TK-10
[7] = tested on: HCT-116
[8] = tested on: HOP-62
[9] = tested on: SNB-19
[10] = tested on: UACC-257
[11] = tested on: SW-620
[12] = tested on: HCT-15
[13] = tested on: SF-268
[14] = tested on: SK-OV-3
[15] = tested on: HL-60
[16] = tested on: NCI-H23
[17] = tested on: OVCAR-3
[18] = tested on: NCI-H226
[19] = tested on: HOP-92
[20] = tested on: MCF7

Row | SMILES | GI50 [1] | GI50 [2] | GI50 [3] | GI50 [4] | GI50 [5] | GI50 [6] | GI50 [7] | GI50 [8] | GI50 [9] | GI50 [10] | GI50 [11] | GI50 [12] | GI50 [13] | GI50 [14] | GI50 [15] | GI50 [16] | GI50 [17] | GI50 [18] | GI50 [19] | GI50 [20]
1 | COC(=O)[C@@H]1O[C@]12[C@@H](CO[Si](C)(C)C(C)(C)C)O[C@@H](n1cc(C)c(=O)[nH]c1=O)[C@@H]2O[Si](C)(C)C(C)(C)C | 23.4 µM (inactive) | 19.5 µM (inactive) | 32.5 µM (inactive) | 7.35 µM (inactive) | 21.6 µM (inactive) | 45 µM (inactive) | 15.2 µM (inactive) | 26.2 µM (inactive) | 10.3 µM (inactive) | 22.4 µM (inactive) | 11.5 µM (inactive) | 4.35 µM | 15.4 µM (inactive) | 32.6 µM (inactive) | 3.12 µM (inactive) | 15.8 µM (inactive) | 14.6 µM (inactive) | 21 µM (inactive) |  | 
2 | C=C1c2c(cc3c(c2O)c(=O)c2ccccc2n3C)OC1(C)C | > 100 µM (inactive) | > 100 µM (inactive) |  |  | > 100 µM (inactive) | 77.6 µM (inactive) |  |  | 34.4 µM (inactive) |  | > 100 µM (inactive) | > 100 µM | 31.6 µM (inactive) | 20 µM (inactive) | > 100 µM (inactive) | 7.89 µM (inactive) | > 100 µM (inactive) | 79.4 µM (inactive) | 15 µM (inactive) | 
3 | O=C1CCCC(=O)N1CCc1c[nH]c2ccccc12 | > 100 µM (inactive) | > 100 µM (inactive) | > 100 µM (inactive) | > 100 µM (inactive) | > 100 µM (inactive) | > 100 µM (inactive) | > 100 µM (inactive) | > 100 µM (inactive) | > 100 µM (inactive) | > 100 µM (inactive) | > 100 µM (inactive) |  | > 100 µM (inactive) | > 100 µM (inactive) | > 100 µM (inactive) | > 100 µM (inactive) | > 100 µM (inactive) | 80.9 µM (inactive) | > 100 µM (inactive) | 
4 | CC1(O)OC(=O)C2=C1CCC1C2CCC2(C)C(O)CCC12 (configuration not stated) | > 100 µM (inactive) | > 100 µM (inactive) | > 100 µM (inactive) |  | > 100 µM (inactive) | > 100 µM (inactive) | > 100 µM (inactive) | > 100 µM (inactive) | > 100 µM (inactive) | > 100 µM (inactive) | > 100 µM (inactive) | > 100 µM | > 100 µM (inactive) |  | > 100 µM (inactive) | > 100 µM (inactive) | > 100 µM (inactive) | > 100 µM (inactive) | > 100 µM (inactive) | > 100 µM (inactive)
5 | COc1ccccc1C1C(Cl)C(=O)N1n1cnc2ccccc2c1=O (configuration not stated) | > 100 µM (inactive) | > 100 µM (inactive) | > 100 µM (inactive) | > 100 µM (inactive) | > 100 µM (inactive) | > 100 µM (inactive) | > 100 µM (inactive) | > 100 µM (inactive) | 75 µM (inactive) | > 100 µM (inactive) | > 100 µM (inactive) | > 100 µM | > 100 µM (inactive) | > 100 µM (inactive) | > 100 µM (inactive) | > 100 µM (inactive) | > 100 µM (inactive) | > 100 µM (inactive) |  | 
6 | C=C(C)C(=O)[C@@]12C(=O)[C@@H](C)CC[C@H]1[C@H](C)C[C@@H]2C=C(C)C | 29.4 µM (inactive) | 55.6 µM (inactive) | 28.8 µM (inactive) |  | 18 µM (inactive) | 47.6 µM (inactive) | 14.9 µM (inactive) | 34.4 µM (inactive) | 12.6 µM (inactive) | 15.2 µM (inactive) | 20.2 µM (inactive) | 19.9 µM | 17.2 µM (inactive) | 37 µM (inactive) |  | 15.4 µM (inactive) | 19.5 µM (inactive) | < 0.01 µM (active) | 25.8 µM (inactive) | 23.9 µM (inactive)
7 | COc1cc(C2C(C(=O)O)=C(COC(C)=O)Oc3cc4c(cc32)OCO4)cc(OC)c1OC (configuration not stated) | > 100 µM (inactive) | > 100 µM (inactive) | > 100 µM (inactive) | > 100 µM (inactive) | > 100 µM (inactive) | > 100 µM (inactive) | > 100 µM (inactive) | > 100 µM (inactive) | > 100 µM (inactive) | > 100 µM (inactive) | > 100 µM (inactive) | > 100 µM |  | > 100 µM (inactive) | > 100 µM (inactive) | > 100 µM (inactive) | > 100 µM (inactive) |  |  | 
8 | c1c2c(cc(-n3nnc4c3CCCCCC4)c1-n1nnc3c1CCCCCC3)CCCCCC2 | 2.12 µM (inactive) | 13.7 µM (inactive) |  | 8.07 µM (inactive) |  | 12.6 µM (inactive) | 5.7 µM (inactive) | 17.8 µM (inactive) | 12.8 µM (inactive) | 11.7 µM (inactive) | 11.2 µM (inactive) | 5.19 µM | 9.46 µM (inactive) | 14.8 µM (inactive) | 3.8 µM (inactive) | > 10 µM (inactive) | 12.1 µM (inactive) | 16 µM (inactive) | 3.28 µM (inactive) | 
9 | COc1ccc(/C=C2\CCNC2=O)cc1 | > 100 µM (inactive) |  | > 100 µM (inactive) |  | > 100 µM (inactive) |  | > 100 µM (inactive) | 40.6 µM (inactive) | > 100 µM (inactive) | > 100 µM (inactive) | > 100 µM (inactive) | > 100 µM | > 100 µM (inactive) | > 100 µM (inactive) | > 100 µM (inactive) | > 100 µM (inactive) | > 100 µM (inactive) | > 100 µM (inactive) | > 100 µM (inactive) | > 100 µM (inactive)
10 | CC(C)(C)N1C(C(=O)c2ccccc2)C1c1ccccc1 (configuration not stated) |  | > 100 µM (inactive) | > 100 µM (inactive) | > 100 µM (inactive) |  | > 100 µM (inactive) |  | > 100 µM (inactive) | > 100 µM (inactive) | > 100 µM (inactive) | > 100 µM (inactive) | > 100 µM |  | > 100 µM (inactive) | > 100 µM (inactive) | > 100 µM (inactive) | > 100 µM (inactive) | > 100 µM (inactive) | > 100 µM (inactive) | 
11 | c1ccc(C(NC2=NCCO2)C2CC2)cc1 (configuration not stated) |  | > 100 µM (inactive) | > 100 µM (inactive) | > 100 µM (inactive) | > 100 µM (inactive) | > 100 µM (inactive) | 82.8 µM (inactive) | > 100 µM (inactive) | 88.9 µM (inactive) | > 100 µM (inactive) | > 100 µM (inactive) | > 100 µM | > 100 µM (inactive) | > 100 µM (inactive) |  | > 100 µM (inactive) | > 100 µM (inactive) | > 100 µM (inactive) | > 100 µM (inactive) | > 100 µM (inactive)
12 | Cc1cc2c(cc1C)N1Cc3c(ccc(C)c3C)N(C2)C1.Cc1cc2c(cc1C)N1Cc3cc(C)c(C)cc3N(C2)C1 |  | > 100 µM (inactive) | > 100 µM (inactive) | 35.6 µM (inactive) |  | > 100 µM (inactive) | > 100 µM (inactive) | 74.5 µM (inactive) | > 100 µM (inactive) |  | > 100 µM (inactive) |  | > 100 µM (inactive) | > 100 µM (inactive) | 35.2 µM (inactive) | 92.5 µM (inactive) | > 100 µM (inactive) | > 100 µM (inactive) |  | 
13 | Cc1nc2c(sc(=S)n2-c2ccccc2)c(=O)[nH]1 |  |  |  |  | > 100 µM (inactive) | > 100 µM (inactive) | > 100 µM (inactive) | > 100 µM (inactive) | > 100 µM (inactive) | > 100 µM (inactive) | > 100 µM (inactive) |  | > 100 µM (inactive) | > 100 µM (inactive) | > 100 µM (inactive) | > 100 µM (inactive) | > 100 µM (inactive) | > 100 µM (inactive) | > 100 µM (inactive) | 
14 | CCCCCCCCC(O)c1ccc(/C=C\C(O)CCCC(=O)O)s1 (configuration not stated) |  | > 100 µM (inactive) | > 100 µM (inactive) | > 100 µM (inactive) | > 100 µM (inactive) | > 100 µM (inactive) | > 100 µM (inactive) |  | > 100 µM (inactive) | > 100 µM (inactive) | > 100 µM (inactive) | > 100 µM | > 100 µM (inactive) | > 100 µM (inactive) | > 100 µM (inactive) | > 100 µM (inactive) | > 100 µM (inactive) | > 100 µM (inactive) | > 100 µM (inactive) | 
15 | Oc1ccc(-c2nc3cc(C(F)(F)F)ccc3s2)cc1 | 15.7 µM (inactive) | 15.5 µM (inactive) |  | 17.4 µM (inactive) | 13.6 µM (inactive) | 18.8 µM (inactive) | 14.5 µM (inactive) |  | 16.7 µM (inactive) | 18 µM (inactive) | 20.2 µM (inactive) | 10.1 µM | 16.1 µM (inactive) | 26 µM (inactive) | 18.1 µM (inactive) | 15.9 µM (inactive) | 15 µM (inactive) | 17.3 µM (inactive) |  | 10.2 µM (inactive)
16 | O=c1c(-c2ccc(O)cc2)coc2cc(O)cc(O)c12 [GENISTEIN] |  | > 100 µM (inactive) | > 100 µM (inactive) |  | > 100 µM (inactive) | > 100 µM (inactive) |  |  | 92 µM (inactive) |  | 49.2 µM (inactive) | 72.9 µM | > 100 µM (inactive) |  | 69.8 µM (inactive) | > 100 µM (inactive) |  | 74.1 µM (inactive) | > 100 µM (inactive) | > 100 µM (inactive)
17 | COc1cc(NC(C)CCCN)c2ncccc2c1 (configuration not stated) [PRIMAQUINE PHOSPHATE] | 59 µM (inactive) and 62.4 µM (inactive) |  | > 88.3 µM (inactive) |  |  | 49.8 µM (inactive) and > 94.4 µM (inactive) |  |  |  |  | 52.2 µM (inactive) and 73.8 µM (inactive) |  | 94.4 µM (inactive) and 79.3 µM (inactive) |  | 8.17 µM (inactive) and 10.4 µM (inactive) | > 100 µM (inactive) and > 90.6 µM (inactive) | 22.6 µM (inactive) and 43.7 µM (inactive) | > 68.5 µM (inactive) and 97.9 µM (inactive) |  | 16.4 µM (inactive)
